From US5925678A, “Use of N-acyl derivatives of aminoalcohols in the manufacture of a medicament for practicing neuroprotective action in neuropathological states connected with excitotoxicity” (Lifegroup S.P.A., priority 1994, dated 1999) come the findings set out here.

The nature of one series: Solubility in water. The series is classed as physicochemical.
The test system of series [1] is Granular cell cultures from mouse cerebellum exposed to Glu. In words: Neuroprotective effect against excitotoxicity of Glu in primary neuronal cultures (cell survival, MTT). It counts as cell-based. The note with it: 24 h. On the procedure:
In vitro evaluation of the neuroprotective effect against excitotoxicity of Excitatory Amino Acids in primary neuronal cultures of the following compounds was carried out:
The compounds under evaluation, referred to as a, b, c, and d, were solubilized in DMSO and culture medium to obtain concentrations of 100 μM (4% DMSO) and 60 μM (3% DMSO) and added to the culture mediums according to different treatment schedules in order to determine the time-effect relationship vs. the incubation time and the exposure to the neurotoxic stimulus.
Granular cell cultures were obtained from postnatal day 8-9 mouse Balb-6 cerebellum. The cells were suspended in EBM+2 mM L-glutamine, 100 U/ml penicillin, […], 25 mM KCl and 10% fetal calf serum, plated on polylysine substrate, cultured for 8-10 days and then exposed to Glu 500 μM at room temperature for 5 min. The compounds being evaluated were added to the cultures at the same time of exposure, soon after exposure or 15 min after exposure to Glu, and cultured for 60 minutes; cultures were then washed and brought back to the original medium. The number of survived cells was evaluated by […] method (MTT) 24 hours after excitotoxic stimulation.

Series [2] can be described thus: Solubility in organic solvents. The conditions noted are these: for solubility: organic solvent or mixture. It counts as physicochemical.
The mark [3] stands for this setting: A: compound added at the same time of exposure to Glu (500 μM, 5 min), 60 μM, % of control values, average of three tests, Glu alone 44, read-out: survived cells (%), treatment A, 60 μM.
Setting [4] is: A: compound added at the same time of exposure to Glu (500 μM, 5 min), % of control values, average of three tests, Glu alone 40, read-out: survived cells (%), treatment A, 100 μM.
Setting [5] is: B: compound added soon after exposure to Glu (500 μM, 5 min), % of control values, average of three tests, Glu alone 40, read-out: survived cells (%), treatment B, 100 μM.
Setting [6] is: C: compound added 15 min after exposure to Glu (500 μM, 5 min), 60 μM, % of control values, average of three tests, Glu alone 44, read-out: survived cells (%), treatment C, 60 μM.
[7] abbreviates: C: compound added 15 min after exposure to Glu (500 μM, 5 min), % of control values, average of three tests, Glu alone 40, read-out: survived cells (%), treatment C, 100 μM.
The mark [8] stands for this setting: dmso, read-out: solubility in DMSO.
[9] abbreviates: n-octanol, read-out: solubility in n-octanol.
Setting [10] is: aqueous buffer, 50 mM phosphate buffer, pH 7.4, NaCl 0.9%, read-out: solubility in water: 50 mM phosphate buffer.

Each structure is given as a SMILES string. Counter-ions that a name gives are not always drawn. Like-named read-outs stand apart in the source and are kept apart here.

Turning to `CCCCCCCCCCCCCCCC(=O)NCCO` [Example 1, N-(2-Hydroxyethyl)-Palmitoylamide], in “Solubility in water” (water), the “solubility in water” value was “insoluble”. Besides, the viability at 60 µM in series [1] (setting [3]) worked out at 86%; in series [1] (setting [6]), 101%. The viability at 100 µM was found to be 67% in series [1] (setting [4]), 84% in series [1] (setting [5]) and 76% in series [1] (setting [7]). For the same compound, in series [2], the “solubility in organic solvents” value was “hot methanol, CH3 Cl, DMSO”.
The term solubility denotes how much of the substance goes into solution per volume. As to `CCCCC/C=C\C/C=C\C/C=C\C/C=C\CCCC(=O)NCCO` [Example 10, N-(2-Hydroxyethyl)-Arachidonamide], in the series “Solubility in water” (water), the “solubility in water” value was “poorly soluble”. For the same compound, the viability at 60 µM in series [1] (read-out: survived cells (%), treatment A, 60 μM) came out at 95%. Also, the solubility in series [2] (setting [8]) was above 10000 µg/mL; in series [2] (ethanol, read-out: solubility in ethanol), above 10000 µg/mL.
Take `CC(=O)OCCNC(=O)c1ccccc1` [Example 3, N-(2-Acetoxyethyl)-Benzoylamide]: in “Solubility in water” (water), the “solubility in water” value is reported as “poorly soluble”. Moreover, the solubility in series [2] (setting [8]) and in series [2] (setting [9]) was above 10000 µg/mL each time.
For `CCCCCCCCCCCCCCCC(=O)NCCOP(=O)(O)O` [Example 5, N-Palmitoylethanolamide Phosphate], the solubility in the series “Solubility in water” (setting [10]) is above 1000 µg/mL; in series [2] (setting [8]), above 10000 µg/mL. Besides, the “solubility in water” value in the series “Solubility in water” (water) was “poorly soluble”. In addition, the viability at 60 µM in series [1] (setting [3]) was 68%; in series [1] (B: compound added soon after exposure to Glu (500 μM, 5 min), 60 μM, % of control values, average of three tests, Glu alone 44, read-out: survived cells (%), treatment B, 60 μM) it was 99%; in series [1] (setting [6]), 90%.
With `CCCCCCCCCCCCCCCC(=O)NCCOC(=O)CCC(=O)O` [Example 7, N-(2-Hydroxyethyl)-Palmitoylamide Succinate Acid], the “solubility in water” value in the series “Solubility in water” (water) is reported as “poorly soluble”. Further, the solubility was above 1000 µg/mL in “Solubility in water” (water, as potassium salt, read-out: solubility in water as potassium salt) and above 5000 µg/mL in series [2] (setting [8]).
In the case of `N[C@@H](CCC(=O)O)C(=O)O` [Glu, glutamic acid, reference compound], the viability at 500 µM in series [1] (read-out: survived cells (%), Glu alone, 60 μM column) is 44%; in series [1] (read-out: survived cells (%), Glu alone, 100 μM column) it was 40%.
Turning to `CCCCCCCCCCCCCCCC(=O)NCCOC(C)=O` [Example 2, N-(2-Acetoxyethyl)-Palmitoylamide], in the series “Solubility in water” (water), the “solubility in water” value is reported as “poorly soluble”. Moreover, in series [2] (setting [9]), the solubility is above 5000 µg/mL.
`O=C(CCCCCCCC(=O)NCCO)NCCO` [Example 9, N,N'-Bis-(2-Hydroxyethyl)-Nonandiamide]: the viability at 100 µM in series [1] (setting [4]) is 68%; in series [1] (setting [5]), 92%; in series [1] (setting [7]), 87%. Besides, the solubility in series [2] (setting [8]) is above 10000 µg/mL.
In the case of `O=C(O)CCC(=O)OCCNC(=O)C=CCCCCCCCCC(=O)NCCOC(=O)CCC(=O)O` [Example 8, N,N'-Bis(2-Hydroxyethyl)-Dodecenediamide Disuccinate Acid], the results for the solubility (in “Solubility in water” (setting [10]); in series [2] (setting [8])) were above 1000 µg/mL and above 10000 µg/mL, respectively. Also, the “solubility in water” value in the series “Solubility in water” (water) is given as “poorly soluble”.
Take `O=C(/C=C/CCCCCCCCC(=O)NCCOP(=O)(O)O)NCCOP(=O)(O)O` [Example 6, N,N'-Bis(2-Hydroxyethyl)-Dodecenediamide Diphosphate Disodium Salt]: the solubility was above 10000 µg/mL in the series “Solubility in water” (water, read-out: solubility in water) and above 10000 µg/mL in series [2] (DMSO, product in acid form, read-out: solubility in DMSO (product in acid form)).
As to `CC(=O)OCCNC(=O)/C=C/C(=O)NCCOC(C)=O` [Example 4, N,N'-Bis(2-Acetoxyethyl)-Fumaroylamide], in the series “Solubility in water” (water), the “solubility in water” value is reported as “poorly soluble”. Further, the solubility in series [2] (setting [8]) was above 10000 µg/mL.
